Target: T1, recombinant human CL receptor/RAMP1 (Homo sapiens, UniProt O60894+Q16602)
T1 construct: expressed in transfected cells; membranes
Test: RECOMBINANT RECEPTOR BINDING ASSAY (125I-hCGRP)
Conditions: 125I-hCGRP binding to membranes of HEK 293 cells expressing recombinant human CL receptor/RAMP1; stated as 'generally ... less than about'
Protocol: RECOMBINANT RECEPTOR: Human CL receptor (Genbank accession number L76380) was subcloned into the expression vector pIREShyg2 (BD Biosciences Clontech) as a 5′NheI and 3′ PmeI fragment. Human RAMP1 (Genbank accession number AJ001014) was subcloned into the expression vector pIRESpuro2 (BD Biosciences Clontech) as a 5′NheI and 3′NotI fragment. HEK 293 cells (human embryonic kidney cells; ATCC #CRL-1573) were cultured in DMEM with 4.5 g/L glucose, 1 mM sodium pyruvate and 2 mM glutamine supplemented with 10% fetal bovine serum (FBS), 100 units/mL penicillin and 100 μg/mL streptomycin, and maintained at 37° C. and 95% humidity. Cells were subcultured by treatment with 0.25% trypsin with 0.1% EDTA in HBSS. Stable cell line generation was accomplished by co-transfecting 10 μg of DNA with 30 μg Lipofectamine 2000 (Invitrogen) in 75 cm^2 flasks. CL receptor and RAMP1 expression constructs were co-transfected in equal amounts. Twenty-four hours after transfection the cells were diluted and selective medium (growth medium+300 μg/mL hygromycin and 1 μg/mL puromycin) was added the following day. A clonal cell line was generated by single cell deposition utilizing a FACS Vantage SE (Becton Dickinson). Growth medium was adjusted to 150 μg/mL hygromycin and 0.5 μg/mL puromycin for cell propagation.
RECOMBINANT RECEPTOR BINDING ASSAY: Cells expressing recombinant human CL receptor/RAMP1 were washed with PBS and harvested in harvest buffer containing 50 mM HEPES, 1 mM EDTA and Complete protease inhibitors (Roche). The cell suspension was disrupted with a laboratory homogenizer and centrifuged at 48,000 g to isolate membranes. The pellets were resuspended in harvest buffer plus 250 mM sucrose and stored at −70° C. For binding assays, 20 μg of membranes were incubated in 1 ml binding buffer (10 mM HEPES, pH 7.4, 5 mM MgCl2, and 0.2% BSA) for 3 hours at room temperature containing […] ^125I-hCGRP (GE Healthcare) and antagonist. The assay was terminated by filtration through 96-well GFB glass fiber filter plates (PerkinElmer) that had been blocked with 0.05% polyethyleneimine. The filters were washed 3 times with ice-cold assay buffer (10 mM HEPES, pH 7.4 and 5 mM MgCl2). Scintillation fluid was added and the plates were counted on a Topcount (Packard). Non-specific binding was determined and the data analysis was carried out with the apparent dissociation constant (Ki) determined by using a non-linear least squares fitting the bound CPM data to the equation below:
[formula] […]

T1 sequence (Q16602 23-461): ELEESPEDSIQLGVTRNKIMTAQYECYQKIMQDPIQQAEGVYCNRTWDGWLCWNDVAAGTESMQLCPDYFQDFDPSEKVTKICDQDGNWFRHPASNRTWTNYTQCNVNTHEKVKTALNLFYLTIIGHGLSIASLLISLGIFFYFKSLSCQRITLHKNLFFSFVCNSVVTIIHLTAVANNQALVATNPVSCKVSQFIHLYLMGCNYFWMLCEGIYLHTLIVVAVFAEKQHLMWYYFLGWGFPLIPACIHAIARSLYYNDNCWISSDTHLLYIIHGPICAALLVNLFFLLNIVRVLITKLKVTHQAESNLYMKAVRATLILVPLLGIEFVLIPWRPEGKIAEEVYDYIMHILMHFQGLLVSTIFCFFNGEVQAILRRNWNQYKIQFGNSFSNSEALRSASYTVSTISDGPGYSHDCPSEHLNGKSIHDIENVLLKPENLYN
T1 sequence (O60894 27-148): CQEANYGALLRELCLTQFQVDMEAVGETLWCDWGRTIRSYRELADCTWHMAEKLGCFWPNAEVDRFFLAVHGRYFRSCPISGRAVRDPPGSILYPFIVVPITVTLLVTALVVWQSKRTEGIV

Row | Ki | SMILES
1 | < 50 µM | CN1C[C@@](C)(c2cc(F)cc(F)c2)N(CCCc2ccc3c(c2)C[C@@]2(C3)C(=O)Nc3ncccc32)C(=O)C12CCCC2 [Example 9]
2 | < 50 µM | CN1C[C@@](C)(c2cc(F)cc(F)c2)N(C/C=C/c2ccc3c(c2)C[C@@]2(C3)C(=O)Nc3ncccc32)C(=O)C12CCCC2 [Example 8]
3 | < 50 µM | C[C@@]1(c2cc(F)cc(F)c2)CNC2(CCCC2)C(=O)N1CCOc1ccc2c(c1)C[C@@]1(C2)C(=O)Nc2ncccc21 [Example 13]
4 | < 50 µM | CN1C[C@@](C)(c2cc(F)cc(F)c2)N(CCOc2ccc3c(c2)C[C@@]2(C3)C(=O)Nc3ncccc32)C(=O)C12CCCC2 [Example 15]

From patent US8765759B2, “Monocyclic CGRP receptor antagonists” (Merck Sharp & Dohme Corp., priority 2008, dated 2014)
